In data set [1] the test system is [Haemophilus] ducreyi. The data set is described as follows: The compound was tested for minimal inhibitory concentration against Haemophilus ducreyi. Format: functional.
Data set [2] concerns Micrococcus luteus. The data set is described as follows: The compound was tested for minimal inhibitory concentration against Micrococcus luteus. The class given is functional.
Data set [3] concerns Pseudomonas aeruginosa. Briefly: The compound was tested for minimal inhibitory concentration against Pseudomonas aeruginosa. The class given is functional.
For data set [4], the system named is Enterobacter sp. Briefly: The compound was tested for minimal inhibitory concentration against Enterobacter sp. The class given is functional.
The test system of data set [5] is Neisseria gonorrhoeae. Briefly: The compound was tested for minimal inhibitory concentration against Penicillinase producing Neisseria gonorrhoeae (PPNG). Format: functional.
The subject of data set [6] is Neisseria gonorrhoeae. The data set is described as follows: The compound was tested for minimal inhibitory concentration against Neisseria gonorrhoeae. Format: functional.
Data set [7] deals with Candida albicans. Briefly: The compound was tested for minimal inhibitory concentration against Candida albicans. The class given is functional.
For data set [8], the system named is Bacillus subtilis. Briefly: The compound was tested for minimal inhibitory concentration against Bacillus subtilis. Format: functional.
Data set [9] relates to Escherichia coli. The data set is described as follows: The compound was tested for minimal inhibitory concentration against Escherichia coli. The class given is functional.
In data set [10] the test system is Staphylococcus aureus. The data set is described as follows: The compound was tested for minimal inhibitory concentration against Staphylococcus aureus. The class given is functional.
The nature of data set [11]: In vitro cellular toxicity was determined at a concentration of 100 uM in Graham cell lines; found to be non toxic at the above concentration. Format: cell-based.
In data set [12] the test system is Staphylococcus aureus. The data set is described as follows: The compound was tested for minimal inhibitory concentration against Resistant Staphylococcus aureus. Format: functional.
Data set [13] relates to Pseudomonas aeruginosa. Briefly: The compound was tested for minimal inhibitory concentration against Resistant Pseudomonas aeruginosa. The class given is functional.

Each structure is given as a SMILES string. ≈ marks a conversion by molar mass, not a printed value.

What is called MIC is the least concentration at which growth counts as inhibited. Low readings indicate a more susceptible organism, high ones a less susceptible organism. For `COc1ccc(CN=C=S)cc1`, the MIC was 64 µg/mL (≈ 357 µM) in data set [1]; 8 µg/mL (≈ 44.6 µM) in [2]; 16 µg/mL (≈ 89.3 µM) in [3]; 8 µg/mL (≈ 44.6 µM) in [4]; 4 µg/mL (≈ 22.3 µM) in [5]; 4 µg/mL (≈ 22.3 µM) in [6]. For the same molecule, the MIC is 2 µg/mL (≈ 11.2 µM) in data set [7]; 32 µg/mL (≈ 179 µM) in data set [8]; 32 µg/mL (≈ 179 µM) in [9]; 2 µg/mL (≈ 11.2 µM) in [10]; 8 µg/mL (≈ 44.6 µM) in [12]; 16 µg/mL (≈ 89.3 µM) in data set [13]. In [11], the Toxicity result is reported as “Not toxic”.

Consider `C[C@@H]1[C@H](O)[C@@H](C)/C=C/C=C/C=C/C=C/C=C/C=C/C=C/[C@H](O[C@@H]2O[C@H](C)[C@@H](O)[C@H](N)[C@@H]2O)C[C@@H]2O[C@](O)(C[C@@H](O)C[C@@H](O)[C@H](O)CC[C@@H](O)C[C@@H](O)CC(=O)O[C@H]1C)C[C@H](O)[C@H]2C(=O)O` (relative stereo) [AMPHOTERICIN B], for which, in data set [7], it took 2 µg/mL (≈ 2.16 µM) to inhibit growth (MIC).

Consider `CC1(C)S[C@@H]2[C@H](NC(=O)[C@H](N)c3ccccc3)C(=O)N2[C@H]1C(=O)O` [AMPICILLIN], for which the minimum inhibitory concentration (MIC) in data set [1] is 2 µg/mL (≈ 5.72 µM); in data set [2], 2 µg/mL (≈ 5.72 µM); in [3] it was greater than 32 µg/mL; in [4] it was 16 µg/mL (≈ 45.8 µM); in data set [5] it was greater than 32 µg/mL; in data set [6] it was 0.25 µg/mL (≈ 0.715 µM). Also, the MIC in data set [8] is greater than 32 µg/mL; in data set [9] it was 8 µg/mL (≈ 22.9 µM); in data set [10] it was 2 µg/mL (≈ 5.72 µM); in data set [12], greater than 32 µg/mL.

`O=C(O)c1cn(C2CC2)c2cc(N3CCNCC3)c(F)cc2c1=O` [CIPROFLOXACIN]: the minimal inhibitory concentration (MIC) in data set [2] came out at 2 µg/mL (≈ 6.04 µM); in [4], 2 µg/mL (≈ 6.04 µM); in data set [5], 0.25 µg/mL (≈ 0.754 µM); in [6], 0.25 µg/mL (≈ 0.754 µM); in [8], 2 µg/mL (≈ 6.04 µM); in data set [10] it was 2 µg/mL (≈ 6.04 µM). Moreover, the minimal inhibitory concentration (MIC) in [12] and in data set [13] was greater than 32 µg/mL throughout.

On to `C[C@H]1c2cccc(O)c2C(=O)C2=C(O)[C@]3(O)C(=O)C(C(N)=O)=C(O)[C@@H](N(C)C)[C@@H]3[C@@H](O)[C@@H]21.O` [DOXYCYCLINE], for which the MIC in [1] is 4 µg/mL; in [2], 8 µg/mL; in [3], 8 µg/mL; in data set [4] it was 8 µg/mL; in data set [5] it was greater than 32 µg/mL; in data set [6], 0.5 µg/mL. Also, the MIC was 8 µg/mL in [8]; 2 µg/mL in data set [9]; 8 µg/mL in [10]; greater than 32 µg/mL in [12]; greater than 32 µg/mL in data set [13].

Molecule `OC(Cn1cncn1)(Cn1cncn1)c1ccc(F)cc1F` [FLUCONAZOLE] registered an MIC in data set [7] of 0.25 µg/mL (≈ 0.816 µM).

The values are drawn from ChEMBL document CHEMBL1134904, “The activity of p-methoxybenzylisothiocyanate against Neisseria gonorrhoeae, Haemophilus ducreyi, and other microorganisms” (Bioorg Med Chem Lett, 2002).
